According to patent US20230321055A1, “PREVENTIVE TREATMENT OF MIGRAINE” (priority 2022, published 2023):

How the values were obtained:
[1] = oral administration; cited from earlier work
[2] = tested on: participants with chronic migraine; assay: Phase 3 randomized, double-blind, placebo-controlled study of atogepant for prevention of chronic migraine: eDiary efficacy (migraine, headache and acute medication use days, responder rates); type: in vivo, human
Method: A phase 3, multicenter, randomized, double-blind, placebo-controlled, parallel-group study was carried out to evaluate the efficacy, safety, and tolerability of atogepant for the prevention of chronic migraine. A total of 778 participants from 133 sites in North America, Europe, and East Asia were randomized to one of three treatment arms (placebo, Atogepant 30 mg BID, and Atogepant 60 mg QD) in a 1:1:1 ratio.
This study comprised a 4-week screening and baseline period, a 12-week double blind treatment period, and a follow-up period of 4 additional weeks. The total study duration was 20 weeks. Participant disposition information and other relevant participant screening information may also be found in FIG. 19.
The primary end point was the change from baseline in the mean number of migraine days per month across the 12 week treatment period.
Secondary endpoints included change from baseline in mean monthly headache days across the 12 week treatment period; change from baseline in mean monthly acute medication use days across the 12-week treatment period; at least a 50% reduction in mean monthly migraine days across the 12-week treatment period; change from baseline in MSQ v2.1 Role Function-Restrictive domain score at week 12; change from baseline in mean AIM-D monthly functioning and activity impairment score across the 12-week treatment period; and change from baseline in HIT-6 total score at week 12.
Inclusion criteria included at least a 1-year history of chronic migraine consistent with diagnosis according to the International Classification of Headache Disorders, 3rd Edition (ICHD-3) and age of the participant at the time of migraine onset <50 years. Inclusion criteria further included confirmation of headache / migraine headache day frequency as follows: history of, on average, ≥15 headache days per month in the 3 months prior to Visit 1 in the opinion of the investigator AND >=15 headache days during the 4-week screening/baseline period per the electronic diary (eDiary) AND >=8 days during the 4-week screening/baseline period that qualify as being a migraine day per the eDiary. Participants were also required to be using a medically acceptable and effective method of birth control during the course of the entire study.
Exclusion criteria included a history of migraine, accompanied by diplopia or decreased level of consciousness, or retinal migraine; a current diagnosis of new persistent daily headache, trigeminal autonomic cephalgia (e.g., cluster headache), or painful cranial neuropathy; history of an inadequate response to >4 medications (2 of which have different mechanisms of action) prescribed for the prevention of migraine; and woman who is pregnant, planning to become pregnant during the course of the study, or currently lactating.
• All Screened Participants includes those screened participants who signed informed consent form. • The Intent-to-Treat Population includes all randomized participants. […] Treatment groups assigned as randomized.
A Subset of patients (11%) was allowed to use one concomitant migraine preventive medication (e.g., amitriptyline, propranolol, topiramate). Patients were allowed to use acute headache treatments (i.e., triptans, ergotamine derivatives, NSAIDs, acetaminophen, and opioids) as needed. Patients with acute medication overuse and medication overuse headache were also enrolled. The use of a concomitant medication that acts on the CGRP pathway was not permitted for either acute or preventive treatment of migraine. The study excluded patients with myocardial infarction, stroke, or transient ischemic attacks within six months prior to screening.
Outcomes for this analysis included change from baseline in mean MMDs during 4-week intervals, change in weekly migraine days during weeks 1-4, and the proportion of participants with a migraine on each day during the first 7 days of treatment. […] Baseline MMDs ranged from 18.6 to 19.2 across treatment groups. […]

[3] = 30 mg BID, Europe subpopulation
[4] = 30 mg BID, Off-Treatment Hypothetical Estimand population
[5] = 30 mg BID, acute medication over-users
[6] = 30 mg BID, mITT, listed as atogepant

C[C@@H]1[C@H](c2c(F)ccc(F)c2F)C[C@H](NC(=O)c2cnc3c(c2)C[C@@]2(C3)C(=O)Nc3ncccc32)C(=O)N1CC(F)(F)F [Atogepant, (S)—N—((3S,5S,6R)-6-methyl-2-oxo-1-(2,2,2-trifluoroethyl)-5-(2,3,6-trifluorophenyl)piperidin-3-yl)-2′-oxo-1′,2′,5,7-tetrahydrospiro[cyclopenta[b]pyridine-6,3′-pyrrolo[2,3-b]pyridine]-3-carboxamide]
half-life [1]: approximately 11 hours
time to maximum plasma concentrations [1]: ≤ 2 h
MMDs, LS mean difference vs. placebo [2, 3]: −3.02
participants with ≥50% reduction in 3-month average of MMDs [2, 3]: 48.4%
≥50% reduction in 3-month average of MMDs, OR vs placebo [2, 3]: 1.87
LS mean change in MMDs ([2]; 30 mg BID, Europe subpopulation of OTHE population (n=91)): −8.44
decrease of monthly migraine days across the 12 weeks ([2]; 30 mg BID, OTHE population): 7.33 days
>=50% reduction in 3-month average of monthly migraine days, Odds ratio Atogepant vs. Placebo [2, 4]: 2.03
Change from baseline in mean monthly acute medication use days across the 12-week treatment period, LS Mean [2, 4]: -6.61 days
Change from baseline in mean monthly acute medication use days across the 12-week treatment period, LSMD Atogepant vs. Placebo [2, 4]: -2.52 days
Change from baseline in mean monthly headache days across the 12-week treatment period, LS Mean [2, 4]: -7.32 days
Change from baseline in mean monthly headache days across the 12-week treatment period, LSMD Atogepant vs. Placebo [2, 4]: -2.14 days
Change from baseline in mean monthly migraine days across the 12-week treatment period, LS Mean [2, 4]: -7.33 days
Change from baseline in mean monthly migraine days across the 12-week treatment period, LSMD Atogepant vs. Placebo [2, 4]: -2.24 days
>=50% reduction in 3-month average of monthly migraine days, Responders ([2]; 30 mg BID, Off-Treatment Hypothetical Estimand population (N = 254)): 107 (42.1) n (%)
LSM change from baseline in mean monthly acute medication use days [2, 5]: −8.4
mean monthly acute medication use days, LSM difference vs placebo [2, 5]: −2.8
participants with ≥50% reduction in mean MMDs across the 12-week treatment period ([2]; 30 mg BID, acute medication overuse participants): 44.7%
>=50% reduction in 3-month average of monthly migraine days, Odds ratio Atogepant vs. Placebo ([2]; 30 mg BID, mITT): 2.13
Change from baseline in mean monthly acute medication use days across the 12-week treatment period, LS Mean ([2]; 30 mg BID, mITT): -6.73 days
Change from baseline in mean monthly acute medication use days across the 12-week treatment period, LSMD Atogepant vs. Placebo ([2]; 30 mg BID, mITT): -2.63 days
Change from baseline in mean monthly headache days across the 12-week treatment period, LS Mean ([2]; 30 mg BID, mITT): -7.44 days
Change from baseline in mean monthly headache days across the 12-week treatment period, LSMD Atogepant vs. Placebo ([2]; 30 mg BID, mITT): -2.32 days
Change from baseline in mean monthly migraine days across the 12-week treatment period, LS Mean ([2]; 30 mg BID, mITT): -7.46 days
Change from baseline in mean monthly migraine days across the 12-week treatment period, LSMD Atogepant vs. Placebo ([2]; 30 mg BID, mITT): -2.41 days
decrease of monthly migraine days across the 12 weeks ([2]; 30 mg BID, mITT): 7.46 days
participants with ≥30% reduction in mean MMDs across 12 weeks ([2]; 30 mg BID, mITT): 62.1%
participants with ≥50% reduction in mean MMDs across 12 weeks ([2]; 30 mg BID, mITT): 42.7%
participants with ≥75% reduction in mean MMDs across 12 weeks ([2]; 30 mg BID, mITT): 21.3%
Change from baseline in mean monthly migraine days across the 12-week treatment period, LS Mean [2, 6]: -7.5 days
Change from baseline in mean monthly migraine days across the 12-week treatment period, LSMD Atogepant vs. Placebo [2, 6]: -2.4 days
LSM change from baseline in mean MMDs across 12 weeks ([2]; 30 mg BID, participants with acute medication overuse at baseline): −8.3
mean change from baseline in MMDs ([2]; 30 mg BID, weeks 1-4 of treatment): -6.6 days
participants with <30% reduction in mean MMDs in month 1 who experienced ≥30% reduction in either month 2 or 3 ([2]; 30 mg twice daily): 50/96
participants with <30% reduction in mean MMDs in month 1 who experienced ≥30% reduction in month 2 ([2]; 30 mg twice daily): 36/99
participants with <50% reduction in mean MMDs in month 1 who experienced ≥50% reduction in either month 2 or 3 ([2]; 30 mg twice daily): 52/132
participants with <50% reduction in mean MMDs in month 1 who experienced ≥50% reduction in month 2 ([2]; 30 mg twice daily): 32/136
participants without ≥30% reduction in mean MMDs in months 1 or 2 who experienced a ≥30% response by the end of the trial ([2]; 30 mg twice daily): 23.3%
participants without ≥50% reduction in mean MMDs in months 1 or 2 who experienced a ≥50% response by the end of the trial ([2]; 30 mg twice daily): 20.0%
sustained response among participants with ≥75% response in month 1 ([2]; 30 mg twice daily, mITT): 46.9%
sustained response of ≥30% in months 2 and 3 among participants with ≥30% response in month 1 ([2]; 30 mg twice daily, mITT): 81.8%
sustained response of ≥50% in months 2 and 3 among participants with ≥50% response in month 1 ([2]; 30 mg twice daily, mITT): 71.6%
MMDs, LS mean difference vs. placebo ([2]; 60 mg QD, Europe subpopulation): −2.59
